Results reported in PubChem BioAssay AID2060338 (Molecular Pharmacology Branch, DTP, NCI, 2025).
Several values for one entry are separate records, joined by “and”; a condition that tells them apart may be missing. Identical values can stand only once.

System: 556581-035-R-J1-PDC spheroids with HUVEC/MSC, viability
Test: Anticancer human tumor 556581-035-R-J1-PDC patient-derived ovarian carcinoma cell line growth inhibition [IpAb]
Settings: for viability, T/C: stronger effect = lower value
Excerpt: Combinatorial screen of targeted agents with ipatasertib and abemaciclib in multi-cell type tumor spheroids
A high-throughput screen of multi-cell type tumor spheroids was designed to identify active combinations of targeted small molecules and ipatasertib or abemaciclib. Complex spheroids include a stromal component modeled by human endothelial cells (HUVEC) and fibroblasts modeled by human mesenchymal stem cells (MSCs). The concentration ranges selected for each drug and investigational agent were based upon clinically achievable concentrations if the clinical Cmax of the agent was known.
Compounds. The drugs and investigational agents: ipatasertib (NSC767898), abemaciclib(NSC768073), selumetinib (NSC741078), trametinib (758246), adavosertib (NSC754352), everolimus (NSC733504), sapanisertib (NSC764658), vemurafenib (NSC761431), venetoclax (NSC766270), copanlisib (NSC809693), apelisib (NSC765974), palbociblib (NSC758247), vemurafenib (NSC761431), dabrafenib (NSC764134), ravoxertinib (NSC781343), BMS-387032 (NSC767048), sotorasib (NSC818433), talazoparib (NSC767125) and afursertib (NSC778305), were obtained from the National Cancer Institute (NCI) Developmental Therapeutics Program Chemical Repository. The FDA-approved anticancer drug set is available from the NCI Developmental Therapeutics Program. […] The stock solutions were prepared in dimethyl sulfoxide (DMSO, Sigma-Aldrich, St. Louis, MO, cat. D2650) at 800-fold the tested concentration and stored at -70 degrees C prior to their use. All drugs and investigational agents were tested over a range starting from a high concentration at or near the clinical Cmax and decreasing in half-log increments. If the clinical Cmax for an agent had not been determined, the highest concentration tested was 10 microM.
NCI60 Cell Culture. NCI60 cell lines were obtained from the NCI Developmental Therapeutics Program Tumor Repository. For each lot of cells, the Repository performed Applied Biosystems AmpFLSTR Identifiler testing with PCR amplification to confirm consistency with the published Identifier STR profile for each cell line. Cells were kept in continuous culture for no more than 20 passages. The optimal seeding densities for each of the cell lines at each time point assessed were determined prior to performing the concentration response studies. Briefly, the NCI60 human tumor lines were grown as monolayers in RPMI 1640 medium supplemented with 10% FBS and 2 mmol/L L-glutamine.
An additional 9 lines were from the NCI60 cell line panel including MDA-MB-231 breast carcinoma, MDA-MB-468 breast carcinoma, MCF7 breast carcinoma, Hs578T breast carcinoma, MALME-3M melanoma, SK-MEL-2 melanoma, SK-OV-3 ovarian carcinoma, DU-145 prostate carcinoma, PC-3 prostate carcinoma, all cell lines along with major genetic alterations are listed on Table 2. Pooled donor human umbilical vein endothelial cells (HUVEC, Lonza, cat. CC-2519) and human mesenchymal stem cells (hMSC, Lonza, cat. PT-2501) were purchased from Lonza (Walkersville, MD).
PDMR cell lines were grown in complete medium (DC medium): Dulbecco's modified Eagle's medium (DMEM)/F12 supplemented with 5% fetal bovine serum (FBS), 2 mM L-glutamine, 100 U/mL penicillin and 100 µg/ml streptomycin, 0.4 µg/ml hydrocortisone, 10 ng/ml epidermal growth factor (EGF) recombinant human protein, 24 µg/mL adenine, and 0.1 mg/mL primocin. During culture from frozen stock vials, PDMR cells were cultured in the same medium containing 10 µM Y-27632 (see Table 3). The PDCs were cultured in complete DMEM/F12 media without 10 microM Y-27632 dihydrochloride for at least two passages prior to the screen. The pooled donor HUVEC and hMSC were cultured in endothelial cell growth medium 2 (PromoCell, Heidelberg, Germany, cat. C-22011) and mesenchymal stem cell growth medium 2 (PromoCell, cat. C-28009), respectively. For all experiments, HUVEC and hMSC were used at passages </=5.
[…]

[1] = curve of first compound, second compound 0.1 µM
[2] = curve of first compound, second compound 0.316 µM
[3] = curve of first compound, second compound 1 µM
[4] = second compound 0.1 µM, first compound 0.0316 µM
[5] = second compound 0.1 µM, first compound 0.1 µM
[6] = second compound 0.1 µM, first compound 0.316 µM
[7] = second compound 0.1 µM, first compound 1 µM
[8] = second compound 0.1 µM, first compound 3.16 µM
[9] = second compound 0.1 µM, first compound 10 µM
[10] = second compound 0.316 µM, first compound 0.0316 µM
[11] = second compound 0.316 µM, first compound 0.1 µM
[12] = second compound 0.316 µM, first compound 0.316 µM
[13] = second compound 0.316 µM, first compound 1 µM
[14] = second compound 0.316 µM, first compound 3.16 µM
[15] = second compound 0.316 µM, first compound 10 µM
[16] = second compound 1 µM, first compound 0.0316 µM
[17] = second compound 1 µM, first compound 0.1 µM
[18] = second compound 1 µM, first compound 0.316 µM
[19] = second compound 1 µM, first compound 1 µM
[20] = second compound 1 µM, first compound 3.16 µM
[21] = second compound 1 µM, first compound 10 µM
[22] = curve of first compound, second compound 3.16 µM
[23] = curve of first compound, second compound 10 µM
[24] = second compound 3.16 µM, first compound 0.0316 µM
[25] = second compound 3.16 µM, first compound 0.1 µM
[26] = second compound 10 µM, first compound 0.0316 µM
[27] = second compound 10 µM, first compound 0.1 µM
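Further: spheroids exposed to compounds for 7 days before readout.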

Cn1ncc(Cl)c1-c1cc(C(=O)NC(CN)Cc2cccc(F)c2)sc1Cl (stereo not given) + CCN1CCN(Cc2ccc(Nc3ncc(F)c(-c4cc(F)c5nc(C)n(C(C)C)c5c4)n3)nc2)CC1
IC50 (curve of first compound, second compound 0.01 µM): 1610 nM
IC50 (curve of first compound, second compound 0.0316 µM): 1800 nM
IC50 [1]: 1540 nM
IC50 [2]: 1170 nM
IC50 [3]: 402 nM
viability, T/C (second compound 0.01 µM, first compound 0.0316 µM): 96%
viability, T/C (second compound 0.01 µM, first compound 0.1 µM): 81.6%
viability, T/C (second compound 0.01 µM, first compound 0.316 µM): 64.2%
viability, T/C (second compound 0.01 µM, first compound 1 µM): 60.7%
viability, T/C (second compound 0.01 µM, first compound 3.16 µM): 44.3%
viability, T/C (second compound 0.01 µM, first compound 10 µM): 0.26%
viability, T/C (second compound 0.0316 µM, first compound 0.0316 µM): 85.4%
viability, T/C (second compound 0.0316 µM, first compound 0.1 µM): 78.5%
viability, T/C (second compound 0.0316 µM, first compound 0.316 µM): 79.1%
viability, T/C (second compound 0.0316 µM, first compound 1 µM): 56.9%
viability, T/C (second compound 0.0316 µM, first compound 3.16 µM): 41.1%
viability, T/C (second compound 0.0316 µM, first compound 10 µM): 0.2%
viability, T/C [4]: 91.4%
viability, T/C [5]: 82.2%
viability, T/C [6]: 63.9%
viability, T/C [7]: 54.2%
viability, T/C [8]: 47.1%
viability, T/C [9]: 0.18%
viability, T/C [10]: 88.5%
viability, T/C [11]: 92.3%
viability, T/C [12]: 54.8%
viability, T/C [13]: 60.6%
viability, T/C [14]: 31.5%
viability, T/C [15]: 12.4%
viability, T/C [16]: 56.7%
viability, T/C [17]: 54.3%
viability, T/C [18]: 50.5%
viability, T/C [19]: 44.7%
viability, T/C [20]: 25.6%
viability, T/C [21]: 0.54%

CC(C)n1nc(-c2ccc3oc(N)nc3c2)c2c(N)ncnc21 + CC(C)NCC(C(=O)N1CCN(c2ncnc3c2C(C)CC3O)CC1)c1ccc(Cl)cc1
IC50 [1]: 6.46 nM
IC50 [2]: 6 nM
IC50 [3]: 3.58 nM
IC50 [22]: 1.47 nM
IC50 [23]: < 0.316 nM
viability, T/C (second compound 0.1 µM, first compound 0.000316 µM): 87.8%
viability, T/C (second compound 0.1 µM, first compound 0.001 µM): 68.8%
viability, T/C (second compound 0.1 µM, first compound 0.00316 µM): 60.1%
viability, T/C (second compound 0.1 µM, first compound 0.01 µM): 47.6%
viability, T/C [4]: 29.3%
viability, T/C [5]: 24.7%
viability, T/C (second compound 0.316 µM, first compound 0.000316 µM): 69.5%
viability, T/C (second compound 0.316 µM, first compound 0.001 µM): 65.1%
viability, T/C (second compound 0.316 µM, first compound 0.00316 µM): 58%
viability, T/C (second compound 0.316 µM, first compound 0.01 µM): 40.9%
viability, T/C [10]: 36.6%
viability, T/C [11]: 21.3%
viability, T/C (second compound 1 µM, first compound 0.000316 µM): 58.6%
viability, T/C (second compound 1 µM, first compound 0.001 µM): 67.1%
viability, T/C (second compound 1 µM, first compound 0.00316 µM): 50.4%
viability, T/C (second compound 1 µM, first compound 0.01 µM): 34%
viability, T/C [16]: 28.6%
viability, T/C [17]: 25.2%
viability, T/C (second compound 3.16 µM, first compound 0.000316 µM): 63.4%
viability, T/C (second compound 3.16 µM, first compound 0.001 µM): 52.4%
viability, T/C (second compound 3.16 µM, first compound 0.00316 µM): 44.1%
viability, T/C (second compound 3.16 µM, first compound 0.01 µM): 34.1%
viability, T/C [24]: 27.5%
viability, T/C [25]: 18.5%
viability, T/C (second compound 10 µM, first compound 0.000316 µM): 48%
viability, T/C (second compound 10 µM, first compound 0.001 µM): 44%
viability, T/C (second compound 10 µM, first compound 0.00316 µM): 36.8%
viability, T/C (second compound 10 µM, first compound 0.01 µM): 25.7%
viability, T/C [26]: 17.1%
viability, T/C [27]: 16.4%

Cn1ncc(Cl)c1-c1cc(C(=O)NC(CN)Cc2cccc(F)c2)sc1Cl (stereo not given)
viability, T/C (compound 0.0316 µM): 90.6% and 96.9%
viability, T/C (compound 0.1 µM): 81% and 74.5%
viability, T/C (compound 0.316 µM): 71.5% and 69.2%
viability, T/C (compound 1 µM): 60.2% and 70.8%
viability, T/C (compound 3.16 µM): 52.5% and 47.6%
viability, T/C (compound 10 µM): 0.3% and 0.29%
IC50 (curve of compound): 2320 nM and 2410 nM

CCN1CCN(Cc2ccc(Nc3ncc(F)c(-c4cc(F)c5nc(C)n(C(C)C)c5c4)n3)nc2)CC1
viability, T/C (compound 1 µM): 52.7% [middle of 13 runs]

CC(=O)c1c(C)c2cnc(Nc3ccc(N4CCNCC4)cn3)nc2n(C2CCCC2)c1=O
viability, T/C (compound 0.000949 µM): 92.6% and 100%
viability, T/C (compound 0.003 µM): 125% and 99.8%
viability, T/C (compound 0.00949 µM): 91.4% and 106%
viability, T/C (compound 0.03 µM): 106% and 104%
viability, T/C (compound 0.0949 µM): 94.1% and 108%
viability, T/C (compound 0.3 µM): 99.7% and 95.6%
IC50 (curve of compound): > 300 nM

CCCS(=O)(=O)Nc1ccc(F)c(C(=O)c2c[nH]c3ncc(-c4ccc(Cl)cc4)cc23)c1F + CC(C)NCC(C(=O)N1CCN(c2ncnc3c2C(C)CC3O)CC1)c1ccc(Cl)cc1
IC50 [1]: > 10000 nM
IC50 [2]: > 10000 nM
IC50 [3]: > 10000 nM
IC50 [22]: 4620 nM
IC50 [23]: 31.6 nM
viability, T/C [4]: 80.4%
viability, T/C [5]: 83%
viability, T/C [6]: 97.2%
viability, T/C [7]: 88.6%
viability, T/C [8]: 90%
viability, T/C [9]: 54.3%
viability, T/C [10]: 90%
viability, T/C [11]: 73.9%
viability, T/C [12]: 71.8%
viability, T/C [13]: 80.8%
viability, T/C [14]: 78.2%
viability, T/C [15]: 59.9%
viability, T/C [16]: 67.1%
viability, T/C [17]: 69%
viability, T/C [18]: 61.5%
viability, T/C [19]: 71.3%
viability, T/C [20]: 69.1%
viability, T/C [21]: 40.4%
viability, T/C [24]: 49.2%
viability, T/C [25]: 61.8%
viability, T/C (second compound 3.16 µM, first compound 0.316 µM): 55.5%
viability, T/C (second compound 3.16 µM, first compound 1 µM): 55.8%
viability, T/C (second compound 3.16 µM, first compound 3.16 µM): 54.5%
viability, T/C (second compound 3.16 µM, first compound 10 µM): 40.8%
viability, T/C [26]: 45.1%
viability, T/C [27]: 46.7%
viability, T/C (second compound 10 µM, first compound 0.316 µM): 47.2%
viability, T/C (second compound 10 µM, first compound 1 µM): 53.2%
viability, T/C (second compound 10 µM, first compound 3.16 µM): 50.8%
viability, T/C (second compound 10 µM, first compound 10 µM): 16.6%
